{"source": "patent US7081538B1", "about": "“Substituted isoxazolines and their use as antibacterial agents” (priority 1999, dated 2006)", "type_in_all_cases": "cell-based", "key": {"[1]": {"test_system": "Staphylococcus aureus MRQR (methicillin resistant quinolone resistant)", "assay": "MIC by agar-dilution, Staphylococcus aureus MRQR", "details": "inoculum 10^4 CFU/spot, 37° C., 24 hours", "description": "(§1) The following results were obtained on a standard in-vitro test system. The activity is described in terms of the minimum inhibitory concentration (MIC) determined by the agar-dilution technique with an inoculum size of 10^4 CFU/spot. Typically, compounds are active in the range 0.01 to 256 μg/ml.\n(§2) Staphylococci were tested on agar, using an inoculum of 10^4 CFU/spot and an incubation temperature of 37° C. for 24 hours—standard test conditions for the expression of methicillin resistance."}, "[2]": {"test_system": "Staphylococcus aureus Novb. Res (Novobiocin resistant)", "assay": "MIC by agar-dilution, Staphylococcus aureus Novb. Res", "details": "inoculum 10^4 CFU/spot, 37° C., 24 hours", "description": "as §1, §2"}, "[3]": {"test_system": "Coagulase Negative Staphylococci MR (methicillin resistant)", "assay": "MIC by agar-dilution, Coagulase Negative Staphylococci MR", "details": "inoculum 10^4 CFU/spot, 37° C., 24 hours", "description": "as §1, §2"}, "[4]": {"test_system": "Coagulase Negative Staphylococci MS (methicillin sensitive)", "assay": "MIC by agar-dilution, Coagulase Negative Staphylococci MS", "details": "inoculum 10^4 CFU/spot, 37° C., 24 hours", "description": "as §1, §2"}, "Bacillus subtilis": {"test_system": "Bacillus subtilis", "assay": "MIC by agar-dilution, Bacillus subtilis", "details": "inoculum 10^4 CFU/spot", "description": "as §1"}, "[5]": {"test_system": "Staphylococcus aureus Oxford", "assay": "MIC by agar-dilution, Staphylococcus aureus Oxford", "details": "inoculum 10^4 CFU/spot, 37° C., 24 hours", "description": "as §1, §2"}, "[6]": {"test_system": "Streptococcus pyogenes C203", "assay": "MIC by agar-dilution, Streptococcus pyogenes C203", "details": "agar with 5% defibrinated horse blood, 10^4 CFU/spot, 37° C., 5% carbon dioxide, 48 hours", "description": "as §1\n(§3) Streptococci and enterococci were tested on agar supplemented with 5% defibrinated horse blood, an inoculum of 10^4 CFU/spot and an incubation temperature of 37° C. in an atmosphere of 5% carbon dioxide for 48 hours—blood is required for the growth of some of the test organisms."}, "Enterococcus faecalis": {"test_system": "Enterococcus faecalis", "assay": "MIC by agar-dilution, Enterococcus faecalis", "details": "agar with 5% defibrinated horse blood, 10^4 CFU/spot, 37° C., 5% carbon dioxide, 48 hours", "description": "as §1, §3"}}, "data": [{"smiles": "O=C(CO)N1CC=C(c2ccc(C3=NOC(CNc4ccon4)C3)cc2)CC1", "note": "(racemic) [Example 1, (5RS)-3-(4-(1-Hydroxyacetyl-1,2,5,6-tetrahydropyrid-4-yl)phenyl)-5-(3-isoxazolylaminomethyl)-4,5-dihydro-isoxazole]", "values": [{"measurement": "MIC", "setting": "[1]", "result": 4, "unit": "µg/mL"}, {"measurement": "MIC", "setting": "[2]", "result": 4, "unit": "µg/mL"}, {"measurement": "MIC", "setting": "[3]", "result": 2, "unit": "µg/mL"}, {"measurement": "MIC", "setting": "[4]", "result": 1, "unit": "µg/mL"}, {"measurement": "MIC", "setting": "Bacillus subtilis", "result": 1, "unit": "µg/mL"}, {"measurement": "MIC", "setting": "[5]", "result": 2, "unit": "µg/mL"}, {"measurement": "MIC", "setting": "[6]", "result": 8, "unit": "µg/mL"}, {"measurement": "MIC", "setting": "Enterococcus faecalis", "result": 8, "unit": "µg/mL"}]}]}
